# Measured values: patent US9346761B2, “Arginine methyltransferase inhibitors and uses thereof” (Epizyme, Inc., priority 2013, dated 2016)
# Molecular target: T1, Full-length human PRMT3 (Homo sapiens, UniProt O60678)
# T1 construct: GST-tagged PRMT3; made in house; host or cells: E. coli BL21(DE3) Gold (pGEX-KG)
# Assay: PRMT3 biochemical assay (3H-SAM Flashplate, peptide substrate)
# Excerpt: General Materials. S-adenosylmethionine (SAM), S-adenosylhomocysteine (SAH), bicine, Tween20, dimethylsulfoxide (DMSO), bovine skin gelatin (BSG),), isopropyl-β-D-thiogalactopyranoside (IPTG), and Tris(2-carboxyethyl)phosphine hydrochloride solution (TCEP) were purchased from Sigma-Aldrich at the highest level of purity possible. ^3H-SAM was purchase from American Radiolabeled Chemicals with a specific activity of 80 Ci/mmol. 384-well streptavidin Flashplates were purchased from PerkinElmer.
# Substrates. Peptide containing the classic RMT substrate motif was synthesized with an N-terminal linker-affinity tag motif and a C-terminal amide cap by 21st Century Biochemicals. The peptide was purified by high-performance liquid chromatography (HPLC) to greater than 95% purity and confirmed by liquid chromatography mass spectrometry (LC-MS). The sequence was Biot-Ahx-[…]-amide (SEQ ID NO.:11).
# Molecular Biology: : Full-length human PRMT3 (NM_005788.3) isoform 1 transcript clone was amplified from an HEK 293 cDNA library and subcloned into pGEX-KG (GE Life Sciences). The resulting construct encodes an N-terminal GST tag and a thrombin cleavage sequence ([…] […] […] […]) (SEQ ID NO.:12) fused directly to Cys 2 of PRMT3.
# Protein Expression. E. coli (BL21(DE3) Gold, Stratagene) made competent by the CaCl2 method were transformed with the PRMT3 construct and ampicillin selection. Protein over-expression was accomplished by growing the PRMT3 expressing E. coli clone and inducing expression with 0.3 mM IPTG at 16° C. The culture was grown for 12 hours, harvested by centrifugation, and stored at −80° C. for purification.
# Protein Purification. […] GST-tagged PRMT3 eluted with 25-400 mM phosphate in buffer C. Protein was concentrated and buffer was exchanged to 20 mM Tris, 150 mM NaCl, 5% glycerol, 5 mM β-mercaptoethanol, pH7.8 by ultrafiltration. The purity of recovered protein was 70%.
# General Procedure for PRMT3 Enzyme Assays on Peptide Substrates. The assays were all performed in a buffer consisting of 20 mM Bicine (pH=7.6), 1 mM TCEP, 0.005% BSG, and 0.002% Tween 20, prepared on the day of use. Compounds in 100% DMSO (1 ul) were spotted into a polypropylene 384-well V-bottom plates (Greiner) using a Platemate Plus outfitted with a 384-channel head (Thermo Scientific). DMSO (1 ul) was added to Columns 11, 12, 23, 24, rows A-H for the maximum signal control and 1 ul of SAH, a known product and inhibitor of PRMT3, was added to columns 11, 12, 23, 24, rows I-P for the minimum signal control. A cocktail (40 ul) containing the PRMT3 enzyme was added by Multidrop Combi (Thermo-Fisher). The compounds were allowed to incubate with PRMT3 for 30 min at room temperature, then a cocktail (10 ul) containing SAM and peptide was added to initiate the reaction (final volume=51 ul). The final concentrations of the components were as follows: PRMT3 was 0.5 nM, ^3H-SAM was 100 nM, non-radiolabeled SAM was 1.8 uM, peptide was 330 nM, SAH in the minimum signal control wells was 1 mM, and the DMSO concentration was 2%. The assays were stopped by the addition of potassium chloride (10 ul) to a final concentration of 100 mM. 50 ul of the reaction in the 384-well polypropylene plate was then transferred to a 384-well Flashplate and the biotinylated peptides were allowed to bind to the streptavidin surface for at least 1 hour before being washed once with 0.1% Tween20 in a Biotek ELx405 plate washer. The plates were then read in a PerkinElmer TopCount plate reader to measure the quantity of ^3H-labeled peptide bound to the Flashplate surface, measured as disintegrations per minute (dpm) or alternatively, referred to as counts per minute (cpm).
# Where dpm=disintegrations per minute, cmpd=signal in assay well, and min and max are the respective minimum and maximum signal controls.
# Where top and bottom are the normally allowed to float, but may be fixed at 100 or 0 respectively in a 3-parameter fit. […]
# T1 sequence (O60678 with tags, fused parts or gaps): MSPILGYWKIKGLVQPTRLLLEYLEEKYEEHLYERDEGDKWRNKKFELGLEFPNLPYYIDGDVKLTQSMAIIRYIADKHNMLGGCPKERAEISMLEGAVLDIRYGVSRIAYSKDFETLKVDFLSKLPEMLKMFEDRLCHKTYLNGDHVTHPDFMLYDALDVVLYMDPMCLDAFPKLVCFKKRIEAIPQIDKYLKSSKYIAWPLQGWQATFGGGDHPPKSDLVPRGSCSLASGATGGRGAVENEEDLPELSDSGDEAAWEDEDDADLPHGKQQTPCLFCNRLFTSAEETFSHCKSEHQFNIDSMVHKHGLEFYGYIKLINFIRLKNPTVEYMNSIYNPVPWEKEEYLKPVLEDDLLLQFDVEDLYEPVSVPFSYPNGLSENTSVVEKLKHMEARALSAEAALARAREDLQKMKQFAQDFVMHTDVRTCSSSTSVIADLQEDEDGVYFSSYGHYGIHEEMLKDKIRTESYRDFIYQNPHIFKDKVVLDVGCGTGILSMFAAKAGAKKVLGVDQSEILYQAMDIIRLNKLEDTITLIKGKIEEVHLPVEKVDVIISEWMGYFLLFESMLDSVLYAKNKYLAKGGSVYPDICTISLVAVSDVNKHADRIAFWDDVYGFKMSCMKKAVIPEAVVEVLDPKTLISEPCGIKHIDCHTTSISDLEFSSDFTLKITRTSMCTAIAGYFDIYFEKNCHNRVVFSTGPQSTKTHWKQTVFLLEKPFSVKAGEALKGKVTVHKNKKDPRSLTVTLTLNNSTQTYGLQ
row,Structure (SMILES),IC50 [µM]
1,COCCn1cc(CN(C)CCN)c(-c2ccc(F)cc2)n1 [Compound 5],> 10
2,COCCn1ncc(CN(C)CCN)c1-c1ccc(F)cc1 [Compound 6],> 10
3,CCn1ncc(CN(C)CCNC)c1-c1ccc(F)cc1 [Compound 7],> 10
4,CCn1cc(CN(C)CCNC)c(-c2ccc(F)cc2)n1 [Compound 8],> 10
5,CN(CCN)Cc1c[nH]nc1-c1ccc(Cl)cc1 [Compound 95],1.01 to 3
6,CN(CCN)Cc1c[nH]nc1-c1ccc(OCC(F)(F)F)cc1 [Compound 96],3.01 to 10
7,CC(C)Oc1ccc(-c2n[nH]cc2CN(C)CCN)cc1F [Compound 97],3.01 to 10
8,CN(CCN)Cc1c[nH]nc1-c1ccc(C2CCOCC2)cc1 [Compound 98],0.101 to 1
9,CN(CCN)Cc1c[nH]nc1-c1ccc(F)cc1F [Compound 99],> 10
10,CN(CCN)Cc1n[nH]cc1-c1ccc(C#N)cc1 [Compound 100],3.01 to 10
11,CC(C)c1ccc(-c2c[nH]nc2CN(C)CCN)cc1 [Compound 101],> 10
12,CN(CCN)Cc1n[nH]cc1-c1ccc(Cl)cc1 [Compound 102],3.01 to 10
13,CN(CCN)Cc1n[nH]cc1-c1ccc(C(F)(F)F)cc1 [Compound 103],> 10
14,CN(CCN)Cc1n[nH]cc1-c1ccc(C2CC2)cc1 [Compound 104],> 10
15,CN(CCN)Cc1n[nH]cc1-c1ccc(OC(F)(F)F)cc1 [Compound 105],3.01 to 10
16,CN(CCN)Cc1c[nH]nc1-c1cc(F)ccc1Cl [Compound 106],> 10
17,COc1ccc(-c2n[nH]cc2CN(C)CCN)c(F)c1 [Compound 107],3.01 to 10
18,Cc1ccc(-c2n[nH]cc2CN(C)CCN)c(F)c1 [Compound 108],3.01 to 10
19,COc1ccccc1-c1n[nH]cc1CN(C)CCN [Compound 109],> 10
20,Cc1cc(C#N)ccc1-c1n[nH]cc1CN(C)CCN [Compound 110],3.01 to 10
21,CN(CCN)Cc1c[nH]nc1-c1cc(F)cc(F)c1 [Compound 111],3.01 to 10
22,CC(=O)c1cccc(-c2n[nH]cc2CN(C)CCN)c1 [Compound 112],3.01 to 10
23,CN(CCN)Cc1cnn(CC(O)CO)c1-c1ccc(F)cc1 (stereo not shown) [Compound 113],> 10
24,CN(CCN)Cc1c[nH]nc1-c1ccc(OC2CC2)cc1 [Compound 114],3.01 to 10
25,CC(O)c1ccc(-c2n[nH]cc2CN(C)CCN)cc1 (stereo not shown) [Compound 115],3.01 to 10
26,CN(CCN)Cc1c[nH]nc1-c1ccc(C2CC2)cc1 [Compound 116],1.01 to 3

row,Structure (SMILES),IC50 [µM]
1,CN(CCN)Cc1c[nH]nc1-c1ccc(C(F)(F)F)c(Cl)c1 [Compound 117],1.01 to 3
2,CN(CCN)Cc1c[nH]nc1-c1ccc(Cl)c(F)c1 [Compound 118],1.01 to 3
3,CN(CCN)Cc1n[nH]cc1-c1ccc(OC2CC2)cc1 [Compound 119],3.01 to 10
4,CN(CCN)Cc1c[nH]nc1-c1cc(F)cc(Cl)c1 [Compound 121],1.01 to 3
5,CN(CCN)Cc1c[nH]nc1-c1cccc(Cl)c1 [Compound 122],3.01 to 10
6,CN(CCN)Cc1c[nH]nc1-c1cccc(Cl)c1F [Compound 123],3.01 to 10
7,CN(CCN)Cc1c[nH]nc1-c1ccc(F)c(Cl)c1 [Compound 124],1.01 to 3
8,COc1ccc(-c2n[nH]cc2CN(C)CCN)cc1Cl [Compound 125],3.01 to 10
9,Cc1ccc(-c2n[nH]cc2CN(C)CCN)cc1Cl [Compound 126],1.01 to 3
10,COc1cc(Cl)cc(-c2n[nH]cc2CN(C)CCN)c1 [Compound 127],3.01 to 10
11,CN(CCN)Cc1cn(CC2CCOCC2)nc1-c1ccc(F)cc1 [Compound 128],> 10
12,Cc1c(F)cccc1-c1n[nH]cc1CN(C)CCN [Compound 129],3.01 to 10
13,COc1cccc(-c2n[nH]cc2CN(C)CCN)c1 [Compound 130],3.01 to 10
14,Cc1cccc(-c2n[nH]cc2CN(C)CCN)c1 [Compound 131],3.01 to 10
15,CN(CCN)Cc1c[nH]nc1-c1ccc(Cl)cc1F [Compound 132],3.01 to 10
16,Cc1cc(Cl)ccc1-c1n[nH]cc1CN(C)CCN [Compound 133],3.01 to 10
17,COc1ccc(-c2n[nH]cc2CN(C)CCN)cc1F [Compound 134],3.01 to 10
18,CN(CCN)Cc1c[nH]nc1-c1ccc(C(F)(F)F)cc1Cl [Compound 135],> 10
19,CCNC(=O)c1ccc(-c2n[nH]cc2CN(C)CCN)cc1 [Compound 136],> 10
20,CN(CCN)Cc1c[nH]nc1-c1cc(Cl)cc(Cl)c1 [Compound 137],3.01 to 10
21,CN(CCN)Cc1n[nH]cc1-c1ccc(OC(F)F)cc1 [Compound 138],> 10
22,CN(CCN1CCCC1)Cc1c[nH]nc1-c1ccc(C#N)cc1 [Compound 139],> 10
23,CN(CCN)Cc1c[nH]nc1-c1ccccc1C#N [Compound 140],3.01 to 10
24,CN(CCN)Cc1c[nH]nc1-c1ccc(C(F)(F)F)c(F)c1 [Compound 141],3.01 to 10
25,COc1cc(-c2n[nH]cc2CN(C)CCN)ccc1F [Compound 142],3.01 to 10
26,CCN(CC)C(=O)c1ccc(-c2n[nH]cc2CN(C)CCN)cc1 [Compound 143],3.01 to 10

row,Structure (SMILES),IC50 [µM]
1,CC(C)Oc1ccc(-c2c[nH]nc2CN(C)CCN)cc1F [Compound 144],> 10
2,CN(CCN)Cc1n[nH]cc1-c1ccc(C2CCOCC2)cc1 [Compound 145],3.01 to 10
3,COc1ccc(-c2n[nH]cc2CN(C)CCN)c(Cl)c1 [Compound 146],3.01 to 10
4,CN(CCN)Cc1c[nH]nc1-c1cc(C#N)ccc1Cl [Compound 147],> 10
5,CN(CCN)Cc1c[nH]nc1-c1ccc(C(F)(F)F)cc1F [Compound 148],> 10
6,CN(CCN)Cc1c[nH]nc1-c1cccc(N(C)C)c1 [Compound 149],3.01 to 10
7,CCOC(=O)c1cccc(-c2n[nH]cc2CN(C)CCN)c1 [Compound 150],> 10
8,COc1cc(F)ccc1-c1n[nH]cc1CN(C)CCN [Compound 151],> 10
9,Cc1cc(F)ccc1-c1n[nH]cc1CN(C)CCN [Compound 152],3.01 to 10
10,COc1ccc(-c2n[nH]cc2CN(C)CCN)cc1 [Compound 153],3.01 to 10
11,COc1ccc(-c2n[nH]cc2CN(C)CCN)c(C(F)(F)F)c1 [Compound 154],> 10
12,COc1ccc(-c2n[nH]cc2CN(C)CCN)c(C)c1 [Compound 155],3.01 to 10
13,CN(CCN)Cc1c[nH]nc1-c1cc(Cl)ccc1F [Compound 156],> 10
14,COc1ccc(Cl)cc1-c1n[nH]cc1CN(C)CCN [Compound 157],> 10
15,Cc1ccc(C#N)cc1-c1n[nH]cc1CN(C)CCN [Compound 158],> 10
16,Cc1ccc(F)cc1-c1n[nH]cc1CN(C)CCN [Compound 159],> 10
17,COc1ccc(F)cc1-c1n[nH]cc1CN(C)CCN [Compound 160],> 10
18,Cc1ccccc1-c1n[nH]cc1CN(C)CCN [Compound 161],> 10
19,Cc1ccc(-c2n[nH]cc2CN(C)CCN)cc1 [Compound 162],3.01 to 10
20,CCN(C)C(=O)c1ccc(-c2n[nH]cc2CN(C)CCN)cc1 [Compound 163],> 10
21,CC(C)CN(C)C(=O)c1ccc(-c2n[nH]cc2CN(C)CCN)cc1 [Compound 164],> 10
22,CCOc1ccc(-c2n[nH]cc2CN(C)CCN)cc1 [Compound 166],3.01 to 10
23,COCCOc1ccc(-c2n[nH]cc2CN(C)CCN)cc1 [Compound 167],3.01 to 10
24,Cc1[nH]nc(-c2ccc(F)cc2)c1CN(C)CCN [Compound 169],> 10
